Results on 18 compounds are retold here after patent US20240246967A1, “AXL COMPOUNDS” (ARCUS BIOSCIENCES, INC., priority 2021, published 2024).

Broadly, the IC50 is the point on the concentration scale where inhibition reaches its midpoint. A lower IC50 goes with greater potency in that assay.

The experiment deals with T1, human TYRO3 (Homo sapiens, UniProt Q06418).
T1 construct: purchased Invitrogen
T1 sequence (Q06418 41-890): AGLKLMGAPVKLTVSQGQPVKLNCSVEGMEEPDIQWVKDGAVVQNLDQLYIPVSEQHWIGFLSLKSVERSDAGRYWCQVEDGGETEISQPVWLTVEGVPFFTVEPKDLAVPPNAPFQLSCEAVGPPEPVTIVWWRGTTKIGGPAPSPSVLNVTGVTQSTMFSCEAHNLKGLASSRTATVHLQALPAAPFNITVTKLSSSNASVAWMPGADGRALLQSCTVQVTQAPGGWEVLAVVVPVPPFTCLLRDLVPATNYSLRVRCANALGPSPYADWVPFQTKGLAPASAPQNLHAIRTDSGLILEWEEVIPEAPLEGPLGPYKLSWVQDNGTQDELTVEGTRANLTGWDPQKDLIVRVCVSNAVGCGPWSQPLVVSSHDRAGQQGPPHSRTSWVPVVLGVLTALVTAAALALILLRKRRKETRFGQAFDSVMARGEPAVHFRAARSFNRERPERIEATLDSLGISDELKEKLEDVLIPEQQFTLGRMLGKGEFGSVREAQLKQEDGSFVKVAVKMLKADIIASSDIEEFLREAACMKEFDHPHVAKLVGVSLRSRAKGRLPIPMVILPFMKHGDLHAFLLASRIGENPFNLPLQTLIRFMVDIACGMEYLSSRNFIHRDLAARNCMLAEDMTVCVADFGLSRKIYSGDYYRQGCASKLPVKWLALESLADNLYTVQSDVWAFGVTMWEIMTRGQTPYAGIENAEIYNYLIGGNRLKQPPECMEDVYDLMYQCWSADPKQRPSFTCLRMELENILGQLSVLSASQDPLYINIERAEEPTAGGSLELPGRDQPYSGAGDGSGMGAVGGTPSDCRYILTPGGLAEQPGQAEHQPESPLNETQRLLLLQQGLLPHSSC
As to the kind of experiment: HTRF KinEASE-TK biochemical potency assay, TYRO3. Conditions: 1 nM TYRO3, 700 μM ATP, 800 nM TK Substrate-biotin. Summed up: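 Final conditions: 5 nM AXL, 1 nM TYRO3 or MER, 50 mM HEPES pH 7.4, 10 mM MgCl2, 0.01% BSA, 1 mM DTT, 700 μM ATP. Reaction ran 2 h at RT after 1 h preincubation with compound; HTRF signal read at 665/620 nm.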
A general note: TR-FRET usually uses a lanthanide donor and a delayed reading to cut background.
`CC(C)(O)c1ccc(-c2n[nH]c3ncc(-c4ccc5c(c4)CCC4(CCCN4)CC5)cc23)cc1Cl` (stereo not drawn) [Example 96, 2-[2-Chloro-4-(5-{5,6,8,9-tetrahydrospiro[benzo[7]annulene-7,2′-pyrrolidin]-3-yl}-1H-pyrazolo[3,4-b]pyridin-3-yl)phenyl]propan-2-ol]: the IC50 was in the range of 100 to 1000 nM.
Then `C[C@@H]1CCCN1C1CCc2ccc(-c3cnc4[nH]nc(-c5ccc(C(C)(C)O)cn5)c4c3)cc2CC1` (stereo partly drawn) [Example 97, 2-[6-(5-{7-[(2R)-2-Methylpyrrolidin-1-yl]-6,7,8,9-tetrahydro-5H-benzo[7]annulen-2-yl}-1H-pyrazolo[3,4-b]pyridin-3-yl)pyridin-3-yl]propan-2-ol], with 100 to 1000 nM.
As for `C[C@@H]1CCCN1C1(C)CCc2ccc(-c3cnc4[nH]nc(-c5cnc(C(C)(C)O)c(Cl)c5)c4c3)cc2CC1` (stereo partly drawn) [Example 98, 2-[3-Chloro-5-(5-{7-methyl-7-[(2R)-2-methylpyrrolidin-1-yl]-6,7,8,9-tetrahydro-5H-benzo[7]annulen-2-yl}-1H-pyrazolo[3,4-b]pyridin-3-yl)pyridin-2-yl]propan-2-ol], the IC50 was 100 to 1000 nM.
Then `C[C@@H]1CCCN1C1(C)CCc2ccc(-c3cnc4[nH]nc(-c5ccc(C(=O)N[C@@H]6CCOC6)cc5)c4c3)cc2CC1` (stereo partly drawn) [Example 99, 4-(5-{7-Methyl-7-[(2R)-2-methylpyrrolidin-1-yl]-6,7,8,9-tetrahydro-5H-benzo[7]annulen-2-yl}-1H-pyrazolo[3,4-b]pyridin-3-yl)-N-[(3R)-oxolan-3-yl]benzamide], with > 1000 nM.
`CCS(=N)(=O)c1ccc(-c2n[nH]c3ncc(-c4ccc5c(c4)CCC(C)(N4CCC[C@H]4C)CC5)cc23)cc1` (stereo partly drawn) [Example 100, Ethyl(imino)[4-(5-{7-methyl-7-[(2R)-2-methylpyrrolidin-1-yl]-6,7,8,9-tetrahydro-5H-benzo[7]annulen-2-yl}-1H-pyrazolo[3,4-b]pyridin-3-yl)phenyl]-λ^6-sulfanone] showed an IC50 of 100 to 1000 nM.
In the case of `C[C@@H]1CCCN1[C@@H]1CCc2cc(-c3cnc4[nH]nc(-c5ccc(S(=O)(=O)C6CC6)cc5)c4c3)cnc2CC1` [Example 101, (2R)-1-(3-{3-[4-(Cyclopropanesulfonyl)phenyl]-1H-pyrazolo[3,4-b]pyridin-5-yl}-5H,6H,7H,8H,9H-cyclohepta[b]pyridin-7-yl)-2-methylpyrrolidine], the IC50 lay within 100 to 1000 nM.
Take `C[C@@H]1CCCN1[C@H]1CCc2cc(-c3cnc4[nH]nc(-c5ccc(S(=O)(=O)C6CC6)cc5)c4c3)cnc2CC1` [Example 102, (2R)-1-[(7S)-3-{3-[4-(Cyclopropanesulfonyl)phenyl]-1H-pyrazolo[3,4-b]pyridin-5-yl}-5H,6H,7H,8H,9H-cyclohepta[b]pyridin-7-yl]-2-methylpyrrolidine]: the IC50 was > 1000 nM.
Compound `COC1CCN(S(=O)(=O)c2ccc(-c3n[nH]c4ncc(-c5ccc6c(c5)CCC(C)(N5CCC[C@H]5C)CC6)cc34)cc2)CC1` (stereo partly drawn) [Example 103, 3-(4-((4-Methoxypiperidin-1-yl)sulfonyl)phenyl)-5-(7-methyl-7-((R)-2-methylpyrrolidin-1-yl)-6,7,8,9-tetrahydro-5H-benzo[7]annulen-2-yl)-1H-pyrazolo[3,4-b]pyridine] displayed an IC50 of 100 to 1000 nM.
In the case of `C[C@@H]1CCCN1C1(C)CCc2ccc(-c3cnc4[nH]nc(-c5ccc(S(=O)(=O)N6CCC6)cc5)c4c3)cc2CC1` (stereo partly drawn) [Example 104, (2R)-1-(2-{3-[4-(Azetidine-1-sulfonyl)phenyl]-1H-pyrazolo[3,4-b]pyridin-5-yl}-7-methyl-6,7,8,9-tetrahydro-5H-benzo[7]annulen-7-yl)-2-methylpyrrolidine] it was < 100 nM; in that of `C[C@@H]1CCCN1C1(C)CCc2ccc(-c3cnc4[nH]cc(-c5ccc(S(=O)(=O)C6CC6)cc5)c4c3)cc2CC1` (stereo partly drawn) [Example 105, (2R)-1-(2-{3-[4-(Cyclopropanesulfonyl)phenyl]-1H-pyrrolo[2,3-b]pyridin-5-yl}-7-methyl-6,7,8,9-tetrahydro-5H-benzo[7]annulen-7-yl)-2-methylpyrrolidine], 100 to 1000 nM; in that of `C[C@@H]1CCCN1C1(C)CCc2ccc(-c3cnc4[nH]nc(-c5ccc(N6CCOCC6)cc5)c4c3)cc2CC1` (stereo partly drawn) [Example 107, 4-[4-(5-{7-Methyl-7-[(2R)-2-methylpyrrolidin-1-yl]-6,7,8,9-tetrahydro-5H-benzo[7]annulen-2-yl}-1H-pyrazolo[3,4-b]pyridin-3-yl)phenyl]morpholine], 100 to 1000 nM.
In the case of `COCCNCc1ccc(-c2n[nH]c3ncc(-c4ccc5c(c4)CCC(C)(N4CCC[C@H]4C)CC5)cc23)cc1` (stereo partly drawn) [Example 108, (2-Methoxyethyl)({[4-(5-{7-methyl-7-[(2R)-2-methylpyrrolidin-1-yl]-6,7,8,9-tetrahydro-5H-benzo[7]annulen-2-yl}-1H-pyrazolo[3,4-b]pyridin-3-yl)phenyl]methyl})amine] it was 100 to 1000 nM.
For `C[C@@H]1CCCN1C1CCc2ccc(-c3cnc4[nH]nc(-c5ccc(S(=O)(=O)C6CC6)cc5)c4c3)cc2C(C)(C)C1` (stereo partly drawn) [Example 109, (2R)-1-(2-{3-[4-(Cyclopropanesulfonyl)phenyl]-1H-pyrazolo[3,4-b]pyridin-5-yl}-9,9-dimethyl-6,7,8,9-tetrahydro-5H-benzo[7]annulen-7-yl)-2-methylpyrrolidine], the IC50 was 100 to 1000 nM.
For the compound `COCCOc1ccc(-c2n[nH]c3ncc(-c4ccc5c(c4)CCC(C)(N4CCC[C@H]4C)CC5)cc23)cc1` (stereo partly drawn) [Example 110, 3-(4-(2-Methoxyethoxy)phenyl)-5-(7-methyl-7-((R)-2-methylpyrrolidin-1-yl)-6,7,8,9-tetrahydro-5H-benzo[7]annulen-2-yl)-1H-pyrazolo[3,4-b]pyridine], the IC50 lay in the range of 100 to 1000 nM.
In the case of `COCCS(=O)(=O)c1ccc(-c2n[nH]c3ncc(-c4ccc5c(c4)CCC(C)(N4CCC[C@H]4C)CC5)cc23)cc1` (stereo partly drawn) [Example 111, (2R)-1-(2-{3-[4-(2-Methoxyethanesulfonyl)phenyl]-1H-pyrazolo[3,4-b]pyridin-5-yl}-7-methyl-6,7,8,9-tetrahydro-5H-benzo[7]annulen-7-yl)-2-methylpyrrolidine], the IC50 is < 100 nM.
The compound `O=C([C@@H]1CCCN1)N1CCc2ccc(-c3cnc4[nH]nc(-c5ccc(S(=O)(=O)C6CC6)cc5)c4c3)cc2CC1` [Example 112, 7-{3-[4-(Cyclopropanesulfonyl)phenyl]-1H-pyrazolo[3,4-b]pyridin-5-yl}-3-[(2S)-pyrrolidine-2-carbonyl]-2,3,4,5-tetrahydro-1H-3-benzazepine] came in with an IC50 of 100 to 1000 nM.
Regarding `O=C([C@H]1CCCN1)N1CCc2ccc(-c3cnc4[nH]nc(-c5ccc(S(=O)(=O)C6CC6)cc5)c4c3)cc2CC1` [Example 113, 7-{3-[4-(Cyclopropanesulfonyl)phenyl]-1H-pyrazolo[3,4-b]pyridin-5-yl}-3-[(2R)-pyrrolidine-2-carbonyl]-2,3,4,5-tetrahydro-1H-3-benzazepine], the IC50 fell in the range of 100 to 1000 nM.
Then `COc1cc(-c2n[nH]c3ncc(-c4ccc5c(c4)CCC(C)(N4CCC[C@H]4C)CC5)cc23)ccc1OC[C@H]1COCCO1` (stereo partly drawn) [Example 114, (2R)-1-{2-[3-(4-{[(2R)-1,4-Dioxan-2-yl]methoxy}-3-methoxyphenyl)-1H-pyrazolo[3,4-b]pyridin-5-yl]-7-methyl-6,7,8,9-tetrahydro-5H-benzo[7]annulen-7-yl}-2-methylpyrrolidine], with 100 to 1000 nM.
